Results on 40 molecules are retold here after ChEMBL document CHEMBL2163249, “Exploration of natural compounds as sources of new bifunctional scaffolds targeting cholinesterases and beta amyloid aggregation: the case of chelerythrine” (Bioorg Med Chem, 2012).

In assay [1] the target is Cholinesterase (Equus caballus) (UniProt P81908). As to conditions: at 2 mg/mL.
Description: Inhibition of horse BChE at 2 mg/ml by Ellman's method
In assay [2] the target is Acetylcholinesterase (Electrophorus electricus) (UniProt O42275). To be noted: at 2 mg/mL.
Description: Inhibition of electric eel AChE at 2 mg/ml by Ellman's method

Cholinesterase (Equus caballus), sequence (P81908 whole entry): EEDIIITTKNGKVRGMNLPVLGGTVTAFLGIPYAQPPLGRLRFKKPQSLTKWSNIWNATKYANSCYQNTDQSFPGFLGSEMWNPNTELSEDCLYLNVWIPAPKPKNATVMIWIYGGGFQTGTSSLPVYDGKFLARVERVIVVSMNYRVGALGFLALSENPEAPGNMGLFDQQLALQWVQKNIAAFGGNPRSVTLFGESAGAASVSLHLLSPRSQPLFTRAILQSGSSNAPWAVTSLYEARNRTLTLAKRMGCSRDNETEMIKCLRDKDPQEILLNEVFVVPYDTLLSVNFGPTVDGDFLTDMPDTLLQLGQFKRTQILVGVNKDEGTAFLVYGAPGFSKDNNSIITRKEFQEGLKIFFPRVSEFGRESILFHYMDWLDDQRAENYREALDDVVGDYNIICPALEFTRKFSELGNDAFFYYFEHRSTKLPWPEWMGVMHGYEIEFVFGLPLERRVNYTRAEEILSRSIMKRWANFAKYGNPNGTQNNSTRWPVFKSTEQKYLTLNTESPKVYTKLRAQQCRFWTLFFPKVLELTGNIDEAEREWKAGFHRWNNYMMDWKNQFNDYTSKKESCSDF

As for `CC[C@]1(O)C[C@H]2CN(CCc3c([nH]c4ccccc34)[C@@](C(=O)OC)(c3cc4c(cc3OC)N(C=O)[C@H]3[C@@](O)(C(=O)OC)[C@H](OC(C)=O)[C@]5(CC)C=CCN6CC[C@]43[C@@H]65)C2)C1`, the inhibition (as a rule, the drop in the measured response relative to a control, in per cent) in assay [1] stood at 2.81%; in assay [2] it was 10.9%.

`O=C1C[C@@H](c2ccc(O)c(O)c2)Oc2cc(O[C@@H]3O[C@H](CO)[C@@H](O)[C@H](O)[C@H]3O)cc(O)c21`: the inhibition was -9.51% in assay [1] and 25.4% in assay [2].

`CCC12C=CCN3CC[C@@]4(c5ccc(OC)cc5N(C)[C@H]4[C@@](O)(C(=O)OC)[C@@H]1OC(C)=O)[C@@H]32` (stereo not given in full): the inhibition in assay [1] is -7.45%; in assay [2], 2.49%.

Regarding `COc1ccc2cc1Oc1ccc(cc1)C[C@H]1c3cc(c(OC)cc3CCN1C)Oc1c(OC)c(OC)c(OC)c3c1[C@H](C2)N(C)CC3`, the inhibition is -7.66% in assay [1] and 23.4% in assay [2].

For BLEOMYCIN, the figures for the inhibition in assay [1] and in assay [2] were 10.8% and 10.2%, respectively.

For the molecule `C=C[C@H]1CN2CC[C@H]1C[C@H]2[C@H](O)c1ccnc2ccc(OC)cc12`, the inhibition worked out at 24.7% in assay [1] and 15.8% in assay [2].

As for `CCN1C[C@]2(COC)CC[C@H](O)[C@@]34C5C[C@@H]6[C@@H](OC)C[C@](O)(C(CC23)C14)C5[C@H]6OC(C)=O` (stereo not given in full), the figures for the inhibition in assay [1] and in assay [2] were -0.23% and 28.9%, respectively.

In the case of `CN1Cc2c(ccc3c2OCO3)[C@@H]2[C@H]1c1cc3c(cc1C[C@@H]2O)OCO3`, the inhibition in assay [1] came to 6.72%; in assay [2], 29.8%.

Take `COc1cc2oc(=O)ccc2cc1O`: the inhibition in assay [1] came to 3.87%; in assay [2], 28.1%.

Consider `COc1cc(C(=O)O[C@H]2C/C(C)=C/CC/C(C)=C/[C@H](O)[C@@H]2C(C)C)ccc1O`, for which the values for the inhibition in assay [1] and in assay [2] were 3.49% and 23.6%, respectively.

`CC(C)[C@@]1(NC(=O)[C@@H]2C[C@@H]3c4cccc5[nH]cc(c45)C[C@H]3N(C)C2)O[C@@]2(O)[C@@H]3CCCN3C(=O)[C@H](Cc3ccccc3)N2C1=O`: the inhibition is 0.35% in assay [1] and -1.54% in assay [2].

In the case of `COc1ccc2c(OC)c3ccoc3nc2c1OC`, the inhibition in assay [1] was 6.79%; in assay [2] it was 39.3%.

`C[C@@H]1O[C@@H](OC[C@H]2O[C@@H](Oc3cc(O)c4c(c3)O[C@H](c3ccc(O)cc3)CC4=O)[C@H](O)[C@@H](O)[C@@H]2O)[C@H](O)[C@H](O)[C@H]1O`: the inhibition is -0.5% in assay [1] and 22.1% in assay [2].

For the molecule `COc1cc(/C=C/C(=O)CC(=O)/C=C/c2ccc(O)c(OC)c2)ccc1O`, the figures for the inhibition in assay [1] and in assay [2] were 2.41% and -2.21%, respectively.

Turning to `C[C@H]1CC[C@@H]2N(C1)C[C@H]1[C@@H]3C[C@H]4[C@@H](CC(=O)[C@H]5C[C@@H](O)CC[C@@]54C)[C@@H]3CC[C@H]1[C@]2(C)O`, the inhibition in assay [1] is 6.5%; in assay [2], 24.9%.

In the case of `C[C@H]1[C@H](C)CC[C@]2(C(=O)O)CC[C@]3(C)C(=CC[C@@H]4[C@@]5(C)C[C@@H](O)[C@H](O)[C@@](C)(CO)[C@@H]5CC[C@]43C)[C@H]12`, the inhibition is -8.64% in assay [1] and 3.99% in assay [2].

On to `C=C[C@@](C)(O)CC[C@H]1C(=C)CC[C@H]2C(C)(C)CCC[C@]12C`, for which the inhibition in assay [1] worked out at 0.47%; in assay [2] it was 21.8%.

For the molecule `CC[C@@H](C(=O)[C@@H](C)[C@@H](O)[C@H](C)[C@@H]1O[C@@H]([C@@H](CC)C(=O)O)CC[C@@H]1C)[C@H]1O[C@]2(C=C[C@@H](O)[C@]3(CC[C@@](C)([C@H]4CC[C@](O)(CC)[C@H](C)O4)O3)O2)[C@H](C)C[C@@H]1C`, the inhibition in assay [1] is 3.73%; in assay [2], 4.25%.

In the case of `COC[C@H]1OC(=O)c2coc3c2[C@@]1(C)C1=C(C3=O)[C@@H]2CCC(=O)[C@@]2(C)C[C@H]1OC(C)=O`, the results for the inhibition in assay [1] and in assay [2] were -6.29% and 16.2%, respectively.

Regarding `Cc1cc(=O)oc2cc(O)ccc12`, the inhibition in assay [1] came out at 0.88%; in assay [2], 4.46%.

As for `CC1(C)CCC[C@]2(C)[C@H]3CC(=O)O[C@]3(C)CC[C@@H]12`, the inhibition in assay [1] is -1.03%; in assay [2] it was -6.49%.

As to `Oc1cc(O)c2c(c1)O[C@H](c1ccc(O)c(O)c1)[C@@H](O)C2`, the inhibition in assay [1] was -5.96%; in assay [2], 7.03%.

Take `COc1ccc2cc1Oc1ccc(cc1)C[C@H]1c3c(cc4c(c3Oc3cc5c(cc3OC)CCN(C)[C@@H]5C2)OCO4)CCN1C`: the values for the inhibition in assay [1] and in assay [2] were 40.6% and 8.59%, respectively.

On to `C=CCc1ccc(O)c(-c2ccc(O)c(CC=C)c2)c1`, for which the results for the inhibition in assay [1] and in assay [2] were 7.62% and -3.48%, respectively.

Consider `COC(=O)C[C@](O)(CCC(C)(C)O)C(=O)O[C@@H]1C(OC)=C[C@]23CCCN2CCc2cc4c(cc2[C@H]13)OCO4`, for which the inhibition in assay [1] was 1.48%; in assay [2], -5.71%.

`COc1ccc(C(=O)OC2C[C@H]3CC[C@H](C2)N3C)cc1OC` (stereo not given in full): the inhibition was 1% in assay [1] and 49.5% in assay [2].

On to `COc1cc(-c2oc3cc(O)cc(O)c3c(=O)c2OC2O[C@H](CO[C@@H]3O[C@@H](C)[C@H](O)[C@@H](O)[C@H]3O)[C@@H](O)[C@H](O)[C@H]2O)ccc1O` (stereo not given in full), for which the inhibition in assay [1] worked out at 0.75%; in assay [2] it was 24.8%.

For `COc1c2occc2c(OC)c2c(=O)cc(C)oc12`, the inhibition in assay [1] stood at 3.3%; in assay [2] it was 7.57%.

For the molecule `C[C@H]1C/C=C/[C@H]2[C@@H]3O[C@]3(C)[C@@H](C)[C@H]3[C@H](Cc4ccccc4)NC(=O)[C@]32OC(=O)O/C=C/[C@@](C)(O)C1=O`, the inhibition came to 9.25% in assay [1] and 5.91% in assay [2].

Take `C[C@@H]1Cc2c(Cl)cc(C(=O)N[C@@H](Cc3ccccc3)C(=O)O)c(O)c2C(=O)O1`: the inhibition in assay [1] is 8.75%; in assay [2] it was -6.4%.

As to `O=c1c(O)c(-c2ccccc2O)oc2cc(O)cc(O)c12`, the inhibition in assay [1] came to 1.68%; in assay [2], 23%.

As for `C[C@H]1CCCC(=O)CCC/C=C/c2cc(O)cc(O)c2C(=O)O1`, the figures for the inhibition in assay [1] and in assay [2] were -1.04% and 1.81%, respectively.

For `COc1ccc2cc1Oc1ccc(cc1)C[C@H]1c3cc(c(OC)cc3CCN1C)Oc1c(OC)c(OC)cc3c1[C@H](C2)N(C)CC3`, the inhibition is -1.1% in assay [1] and 15.5% in assay [2].

Turning to `O=c1c(O)c(-c2cc(O)c(O)c(O)c2)oc2cc(O)ccc12`, the inhibition is -7.22% in assay [1] and 15.7% in assay [2].

For `COc1c(C)c2c(c(O)c1C/C=C(\C)CCC(=O)O)C(=O)OC2`, the inhibition in assay [1] is -7.04%; in assay [2], -6.25%.

In the case of `COc1ccc(C(=O)O[C@H]2CC[C@@]3(C)[C@@H]4CC[C@H]5[C@]6(O)C[C@H](O)[C@@]7(O)[C@@H](CN8C[C@@H](C)CC[C@H]8[C@@]7(C)O)[C@]6(O)C[C@@]53O[C@]24O)cc1OC`, the values for the inhibition in assay [1] and in assay [2] were -4.13% and 21.8%, respectively.

Turning to `CN1C(=O)C[C@H](C(=O)O)[C@H]1c1cccnc1` (relative stereo), the results for the inhibition in assay [1] and in assay [2] were -4.39% and -2.93%, respectively.

Consider `O=C1c2ccccc2-n2c1nc1ccccc1c2=O`, for which the figures for the inhibition in assay [1] and in assay [2] were -2.13% and 35.3%, respectively.

On to `CC(C)CCNC(=O)[C@H](CC(C)C)NC(=O)[C@H]1O[C@@H]1C(=O)O`, for which the results for the inhibition in assay [1] and in assay [2] were 10.6% and -1.94%, respectively.

As to `C[C@@H]1O[C@H](C[N+](C)(C)C)C[C@H]1O`, the inhibition in assay [1] was -6.38%; in assay [2] it was -6.43%.
